≈ marks a conversion by molar mass, not a printed value. Where two headings read alike, the source gives them in different places.
How the values were obtained:
[1] = test system: BxPC-3 pancreatic cell lines; experiment: MTT cell survival, BxPC-3; type: cell-based; settings: Homo sapiens; BxPC-3, MTT
[2] = target: AKT (phospho-Ser^473-AKT) in BxPC-3 (Homo sapiens, UniProt P31749); experiment: Western blot phospho-Ser473-AKT in BxPC-3 cells; settings: BXPC-3, read-out: % pAKT Inhibition At 10 μM
Sequence of AKT (phospho-Ser^473-AKT) in BxPC-3 (P31749 whole entry): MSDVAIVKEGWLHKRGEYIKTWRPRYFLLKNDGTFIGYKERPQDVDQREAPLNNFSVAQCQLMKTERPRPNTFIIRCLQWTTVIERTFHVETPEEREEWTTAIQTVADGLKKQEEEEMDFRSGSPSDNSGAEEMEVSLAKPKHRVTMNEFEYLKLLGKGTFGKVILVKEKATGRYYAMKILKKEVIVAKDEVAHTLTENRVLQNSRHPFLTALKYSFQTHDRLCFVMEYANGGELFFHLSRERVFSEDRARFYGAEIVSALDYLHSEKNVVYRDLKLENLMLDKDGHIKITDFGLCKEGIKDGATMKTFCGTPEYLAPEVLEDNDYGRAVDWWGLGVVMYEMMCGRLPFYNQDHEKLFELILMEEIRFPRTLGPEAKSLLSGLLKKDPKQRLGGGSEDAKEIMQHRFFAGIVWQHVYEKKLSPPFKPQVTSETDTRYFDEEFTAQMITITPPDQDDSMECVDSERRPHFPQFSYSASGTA

pancreatic cancer cells = experiment: Cell viability assay (Table 3); settings: for Cell viability (IC50): viability assay, cell line not given; for IC50: Homo sapiens, Pancreatic cancer cell, read-out: Cell viability (IC50)
[3] = target: AKT (phospho-Ser^473-AKT) in MiaPaCa-2 cells (Homo sapiens, UniProt P31749); experiment: Western blot phospho-Ser473-AKT in MiaPaCa-2 cells; settings: for pAKT inhibition (IC50): MiaPaCa-2 cells
Sequence of AKT (phospho-Ser^473-AKT) in MiaPaCa-2 cells (P31749 whole entry): as above

HT-29 lung cancer cells = experiment: MTT cell survival in HT-29 cells (Table 2); type: cell-based; settings: Homo sapiens
[4] = test system: Panc-1 pancreatic cell line; experiment: Apoptosis, morphological assay, Panc-1; type: cell-based, human; settings: Panc-1, 20 μmol/L
Source text: (§1) AKT inhibition leads to cellular apoptosis.

[5] = test system: MiaPaca-2 pancreatic cell line; experiment: Apoptosis, morphological assay, MiaPaca-2; type: cell-based, human; settings: MiaPaca-2, 20 μmol/L
Source text: as §1

[6] = test system: Panc-1 pancreatic cell line; experiment: MTT cell survival, Panc-1; type: cell-based; settings: Homo sapiens; Panc-1, MTT
[7] = test system: MiaPaca-2 pancreatic cell line; experiment: MTT cell survival, MiaPaca-2; type: cell-based; settings: Homo sapiens, MIA PaCa-2; MiaPaca-2, MTT
Source text: as §1

[8] = target: T1, AKT (phospho-Ser^473 AKT) in NIH3T3 cells (Mus musculus, UniProt P31750); experiment: Inhibition of phospho-Ser473 AKT in NIH3T3 cells; type: cell-based
T1 construct: endogenous in cells; host or cells: NIH3T3
T1 sequence (P31750 whole entry): as the sequence (P31749 whole entry) above, with S2N, A50S, T100A, K112R, E117T, K389T, G410N, H415D counted along it
Experimental: […]. […] AKT activity was measured by Western blotting using anti-phosphoSer437 AKT antibody. Downstream targets of AKT were detected also by Western blotting using specific anti-phospho antibodies and anti-actin was used as a loading control.

[9] = target: T2, AKT (phospho-Ser^473 AKT) in HT-29 colon cancer cells (Homo sapiens, UniProt P31749); experiment: Inhibition of phospho-Ser473 AKT in HT-29 colon cancer cells (Table 11); type: cell-based; settings: human HT-29 colon cancer cells
T2 construct: endogenous in cells; host or cells: HT-29
T2 sequence (P31749 whole entry): as the sequence (P31749 whole entry) above
Experimental: AKT activity was measured by Western blotting using anti-phosphoSer437 AKT antibody. Downstream targets of AKT were detected also by Western blotting using specific anti-phospho antibodies and anti-actin was used as a loading control.
AKT activity was measured by Western blotting using anti-phospho-[…] AKT antibody, PDK activity by anti-phospho-Ser241 PDK antibody as well as downstream target PKC using pan-phospho PKC antibodies. Anti-actin was used as a loading control.

[10] = Cytotoxicity in HT-29 cells; type: cell-based, human; settings: human
[11] = Metabolic stability, incubation with HT-29 cells; type: in vitro ADME; settings: human
Source text: Compound 6 was too insoluble to obtain data.

Solubility (Table 11) = type: physicochemical
IRS1 PH domain = target: T3, IRS1 PH domain (Homo sapiens, UniProt P35568); experiment: SPR direct binding, KD, IRS1 PH domain; settings: Table 10, SPR
T3 sequence (P35568 12-115 limits assumed): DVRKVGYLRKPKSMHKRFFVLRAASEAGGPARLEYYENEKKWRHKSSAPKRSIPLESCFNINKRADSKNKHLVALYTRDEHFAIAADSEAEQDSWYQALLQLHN
Experimental: Binding assays using SPR and an ELISA competitive binding assay were used to measure the binding affinity (KD) of the compounds to all three PH domains. SPR was carried out as described above. […] Purified GST-PH domains were incubated with increasing concentrations of the compounds under analysis for about 4 hours in 0.2 M carbonate buffer pH 9.4 and were added to the 96-well plate and incubated overnight at 4° C. Following incubation, the plate was washed 4 times with phosphate buffered 0.9% NaCl (PBS), blocked with 3% bovine serum albumin (BSA) in PBS and 0.01% Tween for 1 hour, washed again 4 times with PBS and mouse monoclonal anti-glutathione-S-transferase antibody in 3% BSA (1:2000) was added for 1 hr at room temperature with shaking. The plate was washed 4 times with PBS and an anti-mouse IgG horseradish peroxidase coupled antibody (dilution 1:2000 in 3% BSA) was added for 1 hr. After 4 washes with PBS, 2,2′-azinobis[3-ethylbenzothiazoline-6-sulfonic acid]-diammonium salt (ABST) was added and the reaction was allowed to develop for 30 min.

HT-29 cells = experiment: Cytotoxicity in HT-29 cells; type: cell-based, human
[12] = HT-29 cell culture conditions, read-out: half lives under cell culture conditions
[13] = incubating with HT-29 cells at maximum DMEM concentration at 37° C., read-out: Metabolic half life

CCCCCCCCCCCCc1ccc(S(=O)(=O)Nc2nnc(C)s2)cc1 [Compound 108, 4-Dodecyl-N-(5-methyl-1,3,4-thiadiazol-2-yl)benzenesulfonamide]
IC50 [1]: 61 µM
inhibition at 10 µM [2]: 64%

Nc1ccc(S(=O)(=O)Nc2ccc(S(=O)(=O)Nc3nnc(S(N)(=O)=O)s3)cc2)cc1 [Compound 456]
Cell viability (IC50) (pancreatic cancer cells): N/I

CCCCCCCCCCCCc1ccc(S(=O)(=O)Nc2nnc(C(=O)OCC)s2)cc1 [Compound 124E, Ethyl 5-(4-dodecylphenylsulfonamido)-1,3,4-thiadiazole-2-carboxylate]
IC50 [1]: 36 µM

O=C(O)c1ccccc1C(=O)Nc1ccccc1N1CCOCC1 [Compound 438]
Cell viability (IC50) (pancreatic cancer cells): N/I
pAKT inhibition (IC50) [3]: N/I

NS(=O)(=O)c1nnc(NS(=O)(=O)c2cccc3cccnc23)s1 [Compound 345]
IC50 (HT-29 lung cancer cells): > 100 µM

CCOc1ccccc1C(=O)Nc1ccccc1C(=O)O [Compound 441]
Cell viability (IC50) (pancreatic cancer cells): N/I
IC50 [3]: 25 µM

COCCOCCOCC(=O)Nc1ccc(S(=O)(=O)Nc2nncs2)cc1 [Compound 103]
Apoptosis at 20 μmol/L [4]: 11.4 ± 0.5/ %
Apoptosis at 20 μmol/L [5]: 18.7 ± 3.1%
IC50 [6]: > 100 µM
IC50 [7]: > 100 µM

COc1cc(NS(=O)(=O)c2ccc(Nc3ccco3)cc2)nc(OC)n1 [Compound 444]
Cell viability (IC50) (pancreatic cancer cells): N/I

CCCCCCCCCCCCc1ccc(S(=O)(=O)Nc2nnc(CO)s2)cc1 [Compound 128, 4-Dodecyl-N-(5-(hydroxymethyl)-1,4-thiadiazol-2-yl)benzenesulfonamide]
IC50 [1]: 37 µM

COc1cc(NS(=O)(=O)c2ccc(NS(=O)(=O)c3c(C)noc3C)cc2)nc(OC)n1 [Compound 415]
IC50 (HT-29 lung cancer cells): 3.1 µM

CC1=NN(C(=O)c2ccc(C(C)(C)C)cc2)C(=O)C1/N=N/c1ccc(S(=O)(=O)Nc2ncccn2)cc1 (stereo not shown) [Compound 332]
IC50 [8]: > 20 µM
IC50 [9]: > 20 µM
IC50 [10]: 25 µM
half-life [11, 12]: 1 to 2 h
half-life [11, 13]: 1.52 h
solubility (Solubility (Table 11)): 28.6 µM (≈ 14.9 µg/mL)

O=C(Nc1ccccc1SCCS(=O)(=O)c1ccc(Cl)cc1)c1ccccc1Cl [Compound 436]
Cell viability (IC50) (pancreatic cancer cells): N/I
pAKT inhibition (IC50) [3]: N/I

Nc1ccc(S(=O)(=O)Nc2nncs2)cc1 [Compound 100, 4-Amino-N-(1,3,4-thiadiazol-2-yl)benzenesulfonamide]
Apoptosis at 20 μmol/L [4]: 24.3 ± 3.2/ %
Apoptosis at 20 μmol/L [5]: 25.7 ± 2.6%
IC50 [6]: > 100 µM
IC50 [7]: > 100 µM
Cell viability (IC50) (pancreatic cancer cells): N/I

CCCCCCCCCCCCc1ccc(S(=O)(=O)Nc2nnc(CC)s2)cc1 [Compound 112, 4-Dodecyl-N-(5-ethyl-1,3,4-thiadiazol-2-yl)benzenesulfonamide]
IC50 [1]: 32 µM

Cc1cc(C)nc(NS(=O)(=O)c2ccc(NC(=O)c3ccoc3C)cc2)n1 [Compound 446]
Cell viability (IC50) (pancreatic cancer cells): N/I
pAKT inhibition (IC50) [3]: N/I

COc1cc(NS(=O)(=O)c2ccc(Nc3ccco3)cc2)nc(OC)n1 [Compound 454]
pAKT inhibition (IC50) [3]: N/I

Cc1cc(C)nc(NS(=O)(=O)c2ccc(NC(=O)c3ccoc3C)cc2)n1 [Compound 447]
Cell viability (IC50) (pancreatic cancer cells): N/I
pAKT inhibition (IC50) [3]: N/I

CC1=NN(C(=O)c2ccccc2)C(=O)C1/N=N/c1ccc(S(=O)(=O)Nc2ncccn2)cc1 (stereo not shown) [Compound 331]
IC50 [8]: 11 µM
IC50 [10]: 14 µM
half-life [11, 12]: 1 to 2 h
half-life [11, 13]: 1.03 h
solubility (Solubility (Table 11)): 28.3 µM (≈ 13.1 µg/mL)

Cc1onc(-c2ccccc2)c1C(=O)Nc1ccc(S(=O)(=O)Nc2ncccn2)cc1 [Compound 453]
Cell viability (IC50) (pancreatic cancer cells): N/I
pAKT inhibition (IC50) [3]: N/I

COc1ccc(NC(=O)c2ccccc2NC(=O)c2ccccc2C(=O)O)c(OC)c1 [Compound 442]
Cell viability (IC50) (pancreatic cancer cells): N/I
pAKT inhibition (IC50) [3]: N/I

CC1=NN(C(=O)c2ccc(N)cc2)C(=O)C1/N=N/c1ccc(S(=O)(=O)Nc2ncccn2)cc1 (stereo not shown) [Compound 333]
1RS1 PH mKD (IRS1 PH domain): low KD
Kd (IRS1 PH domain; read-out: 1RS1 PH mKD): 0.14 ± 0.02 µM
IC50 [9]: > 20 µM
IC50 [10]: > 100 µM
Cytotoxicity (IC50 μM) (HT-29 cells): no cytotoxicity
half-life [11, 13]: > 8 h
solubility (Solubility (Table 11)): 12.9 µM (≈ 6.17 µg/mL)

O=C(Nc1ccccc1)c1ccccc1NC(=O)c1ccccc1C(=O)O [Compound 439]
Cell viability (IC50) (pancreatic cancer cells): N/I

Cc1nnc(NS(=O)(=O)c2ccc(NS(=O)(=O)c3ccc4ccccc4c3)cc2)s1 [Compound 455]
Cell viability (IC50) (pancreatic cancer cells): did not exhibit cytotoxicity and N/I

CCCCCCCCCC(=O)Nc1ccc(S(=O)(=O)Nc2nncs2)cc1 [Compound 101, N-(4-(N-1,3,4-Thiadiazol-2-ylsulfamoyl)phenyl)decanamide]
Apoptosis at 20 μmol/L [4]: 28.7 ± 0.3/ %
Apoptosis at 20 μmol/L [5]: 20.0 ± 1.5%
IC50 [6]: 127 µM
IC50 [7]: 90 µM

CC(=O)Nc1ccc(NS(=O)(=O)c2c(C)noc2C)cc1 [Compound 451]
Cell viability (IC50) (pancreatic cancer cells): N/I
pAKT inhibition (IC50) [3]: N/I

COc1cc(NS(=O)(=O)c2ccc(NC(=O)c3ccco3)cc2)nc(OC)n1 [Compound 445]
Cell viability (IC50) (pancreatic cancer cells): N/I

CCCCCCCCCCCCc1ccc(S(=O)(=O)Nc2nnc(CC(=O)OCC)s2)cc1 [Compound 120E, Ethyl 2-(5-(4-Dodecylphenylsulfonamido)-1,3,4-thiadiazol-2-yl)acetate]
IC50 [1]: 70 µM

O=S(=O)(Nc1nccs1)c1ccc2ccccc2c1 [Compound 437]
Cell viability (IC50) (pancreatic cancer cells): N/I
pAKT inhibition (IC50) [3]: N/I

CCCCCCCCCCCCc1ccc(S(=O)(=O)Nc2nnc(C(C)(C)C)s2)cc1 [Compound 116, N-(5-tert-Butyl-1,3,4-thiadiazol-2-yl)-4-dodecylbenzenesulfonamide]
IC50 [1]: 45 µM
inhibition at 10 µM [2]: 36%

COc1cccc(OC)c1C(=O)Nc1ccc(S(=O)(=O)Nc2ccccn2)cc1 [Compound 449]
IC50 (pancreatic cancer cells): 190 µM
pAKT inhibition (IC50) [3]: N/I

Cc1noc(C)c1S(=O)(=O)Nc1ccc(Oc2c(Cl)cccc2Cl)nc1 [Compound 448]
IC50 (pancreatic cancer cells): 80 µM
pAKT inhibition (IC50) [3]: N/I

COc1cc(NS(=O)(=O)c2ccc(NC(=O)C(C)(C)C)cc2)nc(OC)n1 [Compound 452]
Cell viability (IC50) (pancreatic cancer cells): N/I
pAKT inhibition (IC50) [3]: N/I

CCCCCCCCCCCCc1ccc(S(=O)(=O)Nc2nnc(CC(=O)O)s2)cc1 [Compound 120, 2-(5-(4-Dodecylphenylsulfonamido)-1,3,4-thiadiazol-2-yl)acetic Acid]
IC50 [1]: > 100 µM

COc1cc(NS(=O)(=O)c2ccc(C(C)=O)cc2)nc(OC)n1 [Compound 450]
Cell viability (IC50) (pancreatic cancer cells): N/I

From patent US20120189670A1, “PHARMACEUTICAL COMPOSITIONS AND FORMULATIONS INCLUDING INHIBITORS OF THE PLECKSTRIN HOMOLOGY DOMAIN AND METHODS FOR USING SAME” (priority 2009, published 2012)
